Assays:
[1] = intravenous infusion over 4 hours on days 1 and 5 of a 21-day cycle; cited from earlier work
[2] = system: New Zealand white rabbits; experiment: Topical toxicity study in rabbits, 4 hours daily application (Example 1); conditions: 2.5 mg/kg topically for 14 days
Procedure: A study uses New Zealand white rabbits to determine topical toxicity of the depsipeptide FR901228 when applied topically in either Cetaphil° lotion (CL) or Aquaphor cream (AC).
The dose of depsipeptide is 2.5 mg/kg/day (30 mg/m2/d); controls receive vehicle (Aquaphor or Cetaphil) in place of depsipeptide. A highly intense dosing regimen is employed to study toxicity. The study is designed for application of the respective topical composition to the rabbits for 4 hours daily for 28 days. The four-hour application is accomplished by removing the applied composition approximately four hours after application. Four groups of rabbits (2 rabbits/sex/group) are used with two control and two experimental groups. The control groups receive carrier alone (CL or AC) and the experimental groups receive FR901228 in the respective carriers. The experimental parameters include weekly testing of clinical pathology and plasma drug levels. Histopathology is performed at days 15 and 28.

rabbits = experiment: Topical tolerability study in rabbits, three times weekly for 4 weeks (Example 2); assay type: in vivo, rabbit
Procedure: The dose used is again 2.5/mg/kg/d (30 mg/m2/d) FR901228 or vehicle in AC, but is applied topically, 4 hrs. a day, for 4 weeks, three times weekly. The study parameters include weekly clinical pathology and histopathology takes place at days 27 and 41. The compositions are applied to substantially all of the rabbit's back. In the case of a human patient or other diseased subject, the composition can be applied to disease-affected and/or non-affected surface areas.

[3] = FR901228 in AC, 2.5 mg/kg/d topical, 4 hrs a day, 4 weeks

C/C=C1\NC(=O)[C@H]2CSSCC/C=C/[C@H](CC(=O)N[C@H](C(C)C)C(=O)N2)OC(=O)[C@H](C(C)C)NC1=O [FR901228, (E)-(1S, 4S, 10S, 21R)-7-[(Z)-ethylidene]-4,21-diisopropyl-2-oxa-12,13-dithia-5,8,20,23-tetraazabicyclo [8,7,6]-tricos-16-ene-3,6,19,22-pentanone]
maximum tolerated dose [1]: 17.8 mg/m2 | skin toxicity at the application site (conclusion) [2]: significant skin toxicity at the application site | Draize scoring (rabbits; [3]): slight to well-defined | onset of red skin at the application site (rabbits; [3]): 9 days | pathology: microscopic lesions at the application site (rabbits; day 27, FR901228 in AC): ulcers of minimal severity | increased FBN (rabbits; days 4, 11, and 27, FR901228 in AC): 1.6-2 ×

— US20080292616A1, “Topical Formulations of Histone Deacetylase Inhibitors and Methods Using the Same” (Government of the United of America, Represented by the …, priority 2005, published 2008)
